Test results published in US10517889B2, “Modulators of SMAD7 expression” (Ionis Pharmaceuticals, Inc., priority 2017, dated 2019).
Strand notation (5' to 3'): a small letter for the sugar, then the base; units joined by * are phosphorothioate-linked, units joined directly phosphodiester-linked; [ ] holds rarer units or linkages, { } end groups; capitals alone tell only the bases. e = 2'-O-(2-methoxyethyl) (MOE); [5mC] = 5-methylcytosine; d = 2'-deoxy (DNA)

Experiments:
human SMAD7 mRNA [1] = assay: Antisense inhibition of human SMAD7 mRNA expression in Hep3B cells by 5-10-5 MOE gapmers, single concentration, electroporation, RT-PCR (Example 1, Study 1 and 2); assay type: cell-based
In short: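 Readout is percent SMAD7 mRNA inhibition versus untreated cells, measured by qRT-PCR (RTS5062) and corrected for total RNA by RIBOGREEN. Oligonucleotide, 5,000 nM or 15,000 nM, was delivered by electroporation into Hep3B cells at 20,000 per well. RNA was collected about 24 h later.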

human SMAD7 mRNA [2] = assay: Dose-dependent inhibition of human SMAD7 mRNA expression in Hep3B cells (Example 3, Study 1 and 2); assay type: cell-based; details: electroporation; for % inhibition of SMAD7 mRNA expression: approximately 16 hours; for IC50: Study 1 (312.5-20000 nM)
In short: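 Hep3B cells, 20,000 per well, electroporated with antisense oligonucleotide at 0.31, 1.25, 5.00 or 20.00 μM (first series) or 0.74, 2.22, 6.67 or 20.00 μM (second series). After ~16 h, SMAD7 mRNA measured by RT-qPCR (RTS5062), normalised to RIBOGREEN total RNA. Percent inhibition vs untreated cells; IC50 derived.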

[3] = Study 2, electroporation with 15,000 nM antisense oligonucleotide, 5-10-5 MOE gapmers targeting SEQ ID NO: 1 and 2
[4] = 312.5 nM, Study 1, relative to untreated control cells
[5] = electroporation, 15,000 nM, approximately 24 hours, relative to untreated control cells, gapmers targeting SEQ ID NO: 1 and 2
[6] = electroporation with 15,000 nM antisense oligonucleotide (Study 2), 5-10-5 MOE gapmers targeting SEQ ID NO: 1 and 2

| Substance | % inhibition of SMAD7 mRNA expression (human SMAD7 mRNA [1]; [3]) [%] | % inhibition of SMAD7 mRNA expression (human SMAD7 mRNA [2]; [4]) [%] | % inhibition of SMAD7 mRNA expression (human SMAD7 mRNA [2]; 1250.0 nM, Study 1) [%] | % inhibition of SMAD7 mRNA expression (human SMAD7 mRNA [2]; 5000.0 nM, Study 1) [%] | % inhibition of SMAD7 mRNA expression (human SMAD7 mRNA [2]; 20000.0 nM, Study 1) [%] | IC50 (human SMAD7 mRNA [2]) [µM] | % inhibition of SMAD7 mRNA expression (human SMAD7 mRNA [1]; [5]) [%] | % inhibition of SMAD7 mRNA expression (human SMAD7 mRNA [1]; [6]) [%] | % Inhibition of SMAD7 mRNA (human SMAD7 mRNA [1]; [6]) [%] |
| --- | --- | --- | --- | --- | --- | --- | --- | --- | --- |
| 771572 (antisense e[5mC]*eT*eT*eG*eG*dG*dA*d[5mC]*dT*dG*d[5mC]*dA*dA*dA*d[5mC]*e[5mC]*eT*e[5mC]*eT*e[5mC]) [compound 771572] | 37 | 0 | 10 | 38 | 13 | > 20 | – | – | – |
| 771573 (antisense eG*e[5mC]*eT*eT*eG*dG*dG*dA*d[5mC]*dT*dG*d[5mC]*dA*dA*dA*e[5mC]*e[5mC]*eT*e[5mC]*eT) [compound 771573] | – | 0 | 5 | 24 | 56 | 18 | 65 | – | – |
| 771574 (antisense e[5mC]*eG*e[5mC]*eT*eT*dG*dG*dG*dA*d[5mC]*dT*dG*d[5mC]*dA*dA*eA*e[5mC]*e[5mC]*eT*e[5mC]) [compound 771574] | 66 | 0 | 5 | 36 | 58 | 13 | – | – | – |
| 771581 (antisense eG*eG*eG*eA*e[5mC]*d[5mC]*d[5mC]*d[5mC]*dA*dG*d[5mC]*d[5mC]*dG*d[5mC]*d[5mC]*eA*eG*e[5mC]*eT*eT) [compound 771581] | – | 0 | 0 | 9 | 65 | 19 | 58 | – | – |
| 771583 (antisense eT*eG*e[5mC]*eT*e[5mC]*d[5mC]*dT*dG*dG*d[5mC]*dA*dG*d[5mC]*dT*dG*e[5mC]*eT*eG*eG*eG) [compound 771583] | 57 | 0 | 15 | 36 | 59 | 10 | – | – | – |
| 771610 (antisense eA*e[5mC]*e[5mC]*eT*eG*dA*dT*dG*dT*d[5mC]*dA*d[5mC]*d[5mC]*dA*dG*eG*eG*e[5mC]*eA*eG) [compound 771610] | – | 0 | 0 | 37 | 38 | > 20 | – | 52 | – |
| 771632 (antisense eA*eA*eT*e[5mC]*e[5mC]*dT*dT*d[5mC]*dT*dT*dG*dG*dA*dG*dG*eG*eA*eA*eG*eG) [compound 771632] | – | 6 | 6 | 46 | 64 | 9 | – | 31 | 54 |
| 771634 (antisense eT*eG*eA*e[5mC]*eG*dG*dA*d[5mC]*d[5mC]*dA*dA*dA*dT*d[5mC]*d[5mC]*eT*eT*e[5mC]*eT*eT) [compound 771634] | – | 0 | 3 | 40 | 36 | > 20 | – | 53 | – |
